From ChEMBL document CHEMBL4265887 (Bioorg Med Chem Lett, 2018)
pIC50: −log10 of the molar value. Converted amounts (≈) assume the structure as drawn. The source made the active and inactive calls. The calls are words filed in the database; no cut-off is given here.

Experiments:
[1] = target: Mitogen-activated protein kinase 8 (Homo sapiens) (UniProt P45983); assay: Inhibition of JNK1 (unknown origin) at 10 uM
HCT-15 = assay: Cytotoxicity against human HCT15 cells assessed as reduction in cell viability after 48 hrs by MTT assay; format: functional, cell-based; settings: HCT-15, 48 h
[2] = target: Hepatocyte growth factor receptor (Homo sapiens) (UniProt P08581); assay: Inhibition of c-MET (unknown origin) at 10 uM
HT-29 [3] = assay: Synergistic cytotoxicity against human HT-29 cells assessed as reduction in cell viability by measuring combination index at 1:1 compound to lonafarnib ratio after 48 hrs by MTT assay; format: functional
[4] = Solubility of the compound in phosphate buffer of pH 7.4 after 24 hrs by RP-HPLC analysis; format: physicochemical; settings: phosphate buffer, pH 7.4
[5] = target: Epithelial discoidin domain-containing receptor 1 (Homo sapiens) (UniProt Q08345); assay: Inhibition of DDR1 (unknown origin) at 10 uM
HCT-116 [6] = assay: Synergistic cytotoxicity against human HCT116 cells assessed as reduction in cell viability by measuring combination index at 1:1 compound to crizotinib ratio after 48 hrs by MTT assay; format: functional
Aurora kinase A = target: T1, Aurora kinase A (Homo sapiens, UniProt O14965); assay: Inhibition of recombinant Aurora A (unknown origin) using TAMRA-PKAtide as substrate after 30 mins by fluorescence polarization assay
T1 sequence (O14965 whole entry): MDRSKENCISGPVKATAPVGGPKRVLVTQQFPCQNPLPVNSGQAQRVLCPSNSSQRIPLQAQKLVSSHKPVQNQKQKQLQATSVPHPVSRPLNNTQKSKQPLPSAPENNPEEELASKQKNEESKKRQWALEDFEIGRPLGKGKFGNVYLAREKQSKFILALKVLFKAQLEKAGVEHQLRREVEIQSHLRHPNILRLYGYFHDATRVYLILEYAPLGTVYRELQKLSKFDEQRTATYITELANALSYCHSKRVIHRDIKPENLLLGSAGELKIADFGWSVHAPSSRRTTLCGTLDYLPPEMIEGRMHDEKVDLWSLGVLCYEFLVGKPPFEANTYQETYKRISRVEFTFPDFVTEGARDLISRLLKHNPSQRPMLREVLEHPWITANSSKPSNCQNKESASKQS

HCT-116 [7] = assay: Synergistic cytotoxicity against human HCT116 cells assessed as reduction in cell viability by measuring combination index at 1:1 compound to trichostatin A ratio after 48 hrs by MTT assay; format: functional
[8] = target: Serine/threonine-protein kinase B-raf (Homo sapiens) (UniProt P15056); assay: Inhibition of BRAF (unknown origin) at 10 uM
HCT-116 [9] = assay: Synergistic cytotoxicity against human HCT116 cells assessed as reduction in cell viability by measuring combination index at 1:1 compound to dasatinib ratio after 48 hrs by MTT assay; format: functional
HT-29 [10] = assay: Synergistic cytotoxicity against human HT-29 cells assessed as reduction in cell viability by measuring combination index at 1:1 compound to trichostatin A ratio after 48 hrs by MTT assay; format: functional
HT-29 [11] = assay: Synergistic cytotoxicity against human HT-29 cells assessed as reduction in cell viability by measuring combination index at 1:1 compound to dasatinib ratio after 48 hrs by MTT assay; format: functional
[12] = target: Tyrosine-protein kinase CSK (Homo sapiens) (UniProt P41240); assay: Inhibition of CSK (unknown origin) at 10 uM
[13] = target: Proto-oncogene tyrosine-protein kinase Src (Homo sapiens) (UniProt P12931); assay: Inhibition of c-Src (unknown origin) at 10 uM
HCT-116 [14] = assay: Synergistic cytotoxicity against human HCT116 cells assessed as reduction in cell viability by measuring combination index at 1:1 compound to lonafarnib ratio after 48 hrs by MTT assay; format: functional
[15] = target: Receptor-type tyrosine-protein kinase FLT3 (Homo sapiens) (UniProt P36888); assay: Inhibition of FLT3 (unknown origin) at 10 uM
[16] = target: CDK2/Cyclin A2 (Homo sapiens) (UniProt P24941+P20248); assay: Inhibition of CDK2/cyclin A (unknown origin) at 10 uM; format: protein-complex assay
[17] = target: Mast/stem cell growth factor receptor Kit (Homo sapiens) (UniProt P10721); assay: Inhibition of c-KIT (unknown origin) at 10 uM
[18] = target: Angiopoietin-1 receptor (Homo sapiens) (UniProt Q02763); assay: Inhibition of TIE2 (unknown origin) at 10 uM
HCT-116 [19] = assay: Cytotoxicity against human HCT116 cells assessed as reduction in cell viability after 48 hrs by MTT assay; format: functional, cell-based; settings: HCT-116, 48 h
[20] = target: Serine/threonine-protein kinase PAK 4 (Homo sapiens) (UniProt O96013); assay: Inhibition of PAK4 (unknown origin) at 10 uM
[21] = target: Cyclin-dependent kinase 4/cyclin D1 (Homo sapiens) (UniProt P11802+P24385); assay: Inhibition of CDK4/Cyclin D1 (unknown origin) at 10 uM; format: protein-complex assay
[22] = target: Serine/threonine-protein kinase Chk1 (Homo sapiens) (UniProt O14757); assay: Inhibition of CHK1 (unknown origin) at 10 uM
[23] = target: Death-associated protein kinase 3 (Homo sapiens) (UniProt O43293); assay: Inhibition of ZIPK (unknown origin) at 10 uM
[24] = target: Tyrosine-protein kinase SYK (Homo sapiens) (UniProt P43405); assay: Inhibition of SYK (unknown origin) at 10 uM
[25] = target: Insulin receptor (Homo sapiens) (UniProt P06213); assay: Inhibition of INSR (unknown origin) at 10 uM
HCT-116 [26] = assay: Synergistic cytotoxicity against human HCT116 cells assessed as reduction in cell viability by measuring combination index at 1:1 compound to erlotinib ratio after 48 hrs by MTT assay; format: functional
HCT-116 [27] = assay: Induction of apoptosis in human HCT116 cells at 100 nM after 72 hrs by Annexin V-FITC staining-based flow cytometric analysis; format: functional, cell-based
HT-29 [28] = assay: Synergistic cytotoxicity against human HT-29 cells assessed as reduction in cell viability by measuring combination index at 1:1 compound to crizotinib ratio after 48 hrs by MTT assay; format: functional
[29] = target: Inhibitor of nuclear factor kappa-B kinase subunit beta (Homo sapiens) (UniProt O14920); assay: Inhibition of IKKbeta (unknown origin) at 10 uM
[30] = target: Platelet-derived growth factor receptor beta (Homo sapiens) (UniProt P09619); assay: Inhibition of PDGFRbeta (unknown origin) at 10 uM
[31] = Solubility of the compound in phosphate buffer of pH 2 after 24 hrs by RP-HPLC analysis; format: physicochemical
Aurora kinase B = Aurora kinase B (Homo sapiens, UniProt Q96GD4); assay: Inhibition of recombinant Aurora B (unknown origin) using TAMRA-PKAtide as substrate after 1 hr by fluorescence polarization assay
[32] = target: Serine/threonine-protein kinase PAK 1 (Homo sapiens) (UniProt Q13153); assay: Inhibition of PAK1 (unknown origin) at 10 uM
[33] = target: Rho-associated protein kinase 2 (Homo sapiens) (UniProt O75116); assay: Inhibition of ROCK2 (unknown origin) at 10 uM

Chain of Angiopoietin-1 receptor (Homo sapiens) (Q02763 whole entry): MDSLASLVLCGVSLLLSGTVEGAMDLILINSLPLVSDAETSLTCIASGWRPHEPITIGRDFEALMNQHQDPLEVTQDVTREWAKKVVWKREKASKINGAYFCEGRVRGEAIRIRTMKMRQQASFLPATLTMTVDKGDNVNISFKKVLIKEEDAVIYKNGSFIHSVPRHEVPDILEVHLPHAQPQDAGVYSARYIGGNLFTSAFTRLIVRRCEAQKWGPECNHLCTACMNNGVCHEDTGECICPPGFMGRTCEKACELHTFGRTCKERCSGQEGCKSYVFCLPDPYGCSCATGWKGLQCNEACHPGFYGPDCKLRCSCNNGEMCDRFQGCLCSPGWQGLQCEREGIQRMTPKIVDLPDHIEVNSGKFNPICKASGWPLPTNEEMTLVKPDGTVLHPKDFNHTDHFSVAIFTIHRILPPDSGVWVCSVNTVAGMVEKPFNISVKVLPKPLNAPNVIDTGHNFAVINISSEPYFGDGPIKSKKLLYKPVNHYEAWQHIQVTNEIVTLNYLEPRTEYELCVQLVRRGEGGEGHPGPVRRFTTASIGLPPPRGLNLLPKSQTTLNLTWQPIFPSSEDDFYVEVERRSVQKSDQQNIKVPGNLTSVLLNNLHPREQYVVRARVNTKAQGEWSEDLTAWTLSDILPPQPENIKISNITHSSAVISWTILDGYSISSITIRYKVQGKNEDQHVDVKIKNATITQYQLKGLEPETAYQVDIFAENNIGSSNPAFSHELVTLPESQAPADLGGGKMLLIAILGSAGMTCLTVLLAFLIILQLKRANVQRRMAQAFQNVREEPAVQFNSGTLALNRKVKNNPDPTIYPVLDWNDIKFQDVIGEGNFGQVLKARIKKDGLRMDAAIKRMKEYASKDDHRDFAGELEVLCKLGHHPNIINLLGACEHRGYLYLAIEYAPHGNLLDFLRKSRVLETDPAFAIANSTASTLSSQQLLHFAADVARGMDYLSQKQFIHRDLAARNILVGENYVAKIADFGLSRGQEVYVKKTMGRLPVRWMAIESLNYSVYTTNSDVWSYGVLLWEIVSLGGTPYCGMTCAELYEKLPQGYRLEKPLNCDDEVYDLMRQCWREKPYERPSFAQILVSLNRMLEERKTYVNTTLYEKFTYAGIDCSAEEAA
Chain of Hepatocyte growth factor receptor (Homo sapiens) (P08581 whole entry): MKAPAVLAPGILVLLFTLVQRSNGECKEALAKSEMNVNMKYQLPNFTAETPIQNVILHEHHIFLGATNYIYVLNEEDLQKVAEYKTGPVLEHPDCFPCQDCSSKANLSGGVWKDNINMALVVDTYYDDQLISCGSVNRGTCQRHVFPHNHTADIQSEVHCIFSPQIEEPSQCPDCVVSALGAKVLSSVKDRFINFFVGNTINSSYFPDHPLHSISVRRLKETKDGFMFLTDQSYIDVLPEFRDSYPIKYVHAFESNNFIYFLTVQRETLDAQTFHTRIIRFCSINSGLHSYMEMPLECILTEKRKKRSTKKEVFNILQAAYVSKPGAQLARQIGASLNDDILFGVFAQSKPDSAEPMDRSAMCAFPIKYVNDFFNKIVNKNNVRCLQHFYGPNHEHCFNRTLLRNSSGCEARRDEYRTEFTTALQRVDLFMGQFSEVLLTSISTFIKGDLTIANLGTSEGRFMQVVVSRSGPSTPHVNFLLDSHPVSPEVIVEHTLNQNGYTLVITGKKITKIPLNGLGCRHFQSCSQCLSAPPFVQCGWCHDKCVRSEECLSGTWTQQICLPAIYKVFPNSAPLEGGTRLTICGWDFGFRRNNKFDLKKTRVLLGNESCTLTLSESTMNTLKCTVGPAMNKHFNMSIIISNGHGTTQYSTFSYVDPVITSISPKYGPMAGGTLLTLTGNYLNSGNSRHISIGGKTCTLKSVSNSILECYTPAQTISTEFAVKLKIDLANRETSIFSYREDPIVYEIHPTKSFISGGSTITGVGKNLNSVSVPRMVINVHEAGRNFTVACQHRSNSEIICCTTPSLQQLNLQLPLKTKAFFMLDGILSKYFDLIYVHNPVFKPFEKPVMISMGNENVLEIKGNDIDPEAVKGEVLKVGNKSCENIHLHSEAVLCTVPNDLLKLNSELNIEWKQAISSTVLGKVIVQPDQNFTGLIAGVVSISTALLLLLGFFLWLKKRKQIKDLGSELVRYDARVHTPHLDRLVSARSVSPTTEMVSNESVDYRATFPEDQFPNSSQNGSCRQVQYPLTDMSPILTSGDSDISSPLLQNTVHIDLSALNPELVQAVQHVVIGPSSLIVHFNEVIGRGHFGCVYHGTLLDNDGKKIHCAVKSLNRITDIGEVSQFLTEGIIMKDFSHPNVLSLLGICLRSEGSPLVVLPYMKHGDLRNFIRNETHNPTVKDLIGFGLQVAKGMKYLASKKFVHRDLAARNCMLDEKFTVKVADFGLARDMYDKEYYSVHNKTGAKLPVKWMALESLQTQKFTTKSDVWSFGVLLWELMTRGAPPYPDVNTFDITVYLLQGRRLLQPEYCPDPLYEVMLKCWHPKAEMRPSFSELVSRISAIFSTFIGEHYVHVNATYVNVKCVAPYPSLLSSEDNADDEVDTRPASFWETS
Chain of Receptor-type tyrosine-protein kinase FLT3 (Homo sapiens) (P36888 whole entry): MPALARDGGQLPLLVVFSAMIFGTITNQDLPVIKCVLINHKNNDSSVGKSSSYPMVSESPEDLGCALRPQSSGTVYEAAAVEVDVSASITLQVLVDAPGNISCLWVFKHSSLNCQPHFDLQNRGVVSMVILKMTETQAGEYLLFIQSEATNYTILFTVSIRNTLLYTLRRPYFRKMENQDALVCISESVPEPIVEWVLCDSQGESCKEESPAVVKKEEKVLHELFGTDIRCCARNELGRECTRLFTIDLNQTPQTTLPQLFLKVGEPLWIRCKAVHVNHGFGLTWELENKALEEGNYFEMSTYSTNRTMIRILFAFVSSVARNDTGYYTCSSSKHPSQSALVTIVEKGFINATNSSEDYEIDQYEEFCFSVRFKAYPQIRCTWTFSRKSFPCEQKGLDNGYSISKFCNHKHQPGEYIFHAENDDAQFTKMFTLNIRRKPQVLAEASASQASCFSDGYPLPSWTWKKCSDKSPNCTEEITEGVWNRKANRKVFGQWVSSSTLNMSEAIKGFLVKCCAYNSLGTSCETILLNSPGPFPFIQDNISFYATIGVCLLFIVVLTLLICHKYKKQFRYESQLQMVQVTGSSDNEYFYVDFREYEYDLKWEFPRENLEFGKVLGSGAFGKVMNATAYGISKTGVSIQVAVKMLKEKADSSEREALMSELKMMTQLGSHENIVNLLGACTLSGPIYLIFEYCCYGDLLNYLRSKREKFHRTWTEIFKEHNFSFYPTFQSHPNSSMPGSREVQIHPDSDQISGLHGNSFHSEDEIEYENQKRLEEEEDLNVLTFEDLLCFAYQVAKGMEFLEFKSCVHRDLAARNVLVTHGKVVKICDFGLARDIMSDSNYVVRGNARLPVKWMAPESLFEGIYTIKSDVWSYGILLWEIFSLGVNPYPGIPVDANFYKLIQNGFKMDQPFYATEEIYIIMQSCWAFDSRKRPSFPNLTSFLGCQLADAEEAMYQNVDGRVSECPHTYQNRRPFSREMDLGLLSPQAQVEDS
Chain of Proto-oncogene tyrosine-protein kinase Src (Homo sapiens) (P12931 2-536 limits assumed): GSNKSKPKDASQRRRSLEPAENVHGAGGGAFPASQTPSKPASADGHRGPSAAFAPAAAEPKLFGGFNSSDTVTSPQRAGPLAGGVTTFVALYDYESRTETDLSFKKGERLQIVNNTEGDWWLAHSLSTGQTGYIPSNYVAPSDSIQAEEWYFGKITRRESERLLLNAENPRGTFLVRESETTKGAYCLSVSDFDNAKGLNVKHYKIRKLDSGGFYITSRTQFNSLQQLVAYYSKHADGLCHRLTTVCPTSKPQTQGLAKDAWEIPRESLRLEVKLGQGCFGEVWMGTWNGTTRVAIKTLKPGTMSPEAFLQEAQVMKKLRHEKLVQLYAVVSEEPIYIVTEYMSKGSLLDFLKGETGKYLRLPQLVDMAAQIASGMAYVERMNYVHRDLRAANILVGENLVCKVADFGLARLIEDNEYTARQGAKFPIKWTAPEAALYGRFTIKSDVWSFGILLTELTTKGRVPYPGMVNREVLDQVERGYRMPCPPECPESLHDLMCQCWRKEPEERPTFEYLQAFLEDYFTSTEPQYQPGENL
Chain of Serine/threonine-protein kinase PAK 4 (Homo sapiens) (O96013 whole entry, looked up): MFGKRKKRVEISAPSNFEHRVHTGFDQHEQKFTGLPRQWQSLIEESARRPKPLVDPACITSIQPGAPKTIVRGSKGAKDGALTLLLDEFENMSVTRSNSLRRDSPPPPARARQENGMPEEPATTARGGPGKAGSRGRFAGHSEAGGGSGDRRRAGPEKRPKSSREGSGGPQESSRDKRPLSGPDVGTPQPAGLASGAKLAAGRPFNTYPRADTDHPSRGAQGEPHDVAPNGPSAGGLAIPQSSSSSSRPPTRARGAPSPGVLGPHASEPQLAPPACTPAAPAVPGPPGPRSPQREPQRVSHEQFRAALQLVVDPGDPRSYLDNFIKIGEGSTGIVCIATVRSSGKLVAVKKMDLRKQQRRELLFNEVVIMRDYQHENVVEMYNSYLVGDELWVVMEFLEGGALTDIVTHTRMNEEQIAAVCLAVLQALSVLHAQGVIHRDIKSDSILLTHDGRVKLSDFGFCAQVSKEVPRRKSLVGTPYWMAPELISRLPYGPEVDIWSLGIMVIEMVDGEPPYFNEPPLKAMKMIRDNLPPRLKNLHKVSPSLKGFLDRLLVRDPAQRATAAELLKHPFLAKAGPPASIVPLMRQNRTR
Chain of Mitogen-activated protein kinase 8 (Homo sapiens) (P45983 whole entry): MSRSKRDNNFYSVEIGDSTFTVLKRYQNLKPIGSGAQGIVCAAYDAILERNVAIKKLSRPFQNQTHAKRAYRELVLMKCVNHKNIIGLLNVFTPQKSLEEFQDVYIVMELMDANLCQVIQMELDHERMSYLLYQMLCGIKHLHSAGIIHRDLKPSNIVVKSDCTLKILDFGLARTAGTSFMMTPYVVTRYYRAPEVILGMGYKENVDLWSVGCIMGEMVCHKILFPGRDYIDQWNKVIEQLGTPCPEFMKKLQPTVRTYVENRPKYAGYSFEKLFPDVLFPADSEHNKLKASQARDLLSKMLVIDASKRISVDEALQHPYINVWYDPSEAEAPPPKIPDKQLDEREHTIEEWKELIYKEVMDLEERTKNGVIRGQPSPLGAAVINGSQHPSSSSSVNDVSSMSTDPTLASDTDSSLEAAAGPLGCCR

`CNC(=O)Nc1sc2c(C(C)C)cc(NS(=O)(=O)c3cccs3)cc2c1C(N)=O` gave an inhibition [1] of 12.2%, a pIC50 (HCT-15) of 6.21 and an inhibition [2] of 47.4%. It also gave a CI (HT-29 [3]) of 0.198, a solubility at 24 h [4] of 1.9 µM (≈ 0.86 µg/mL) and an inhibition [5] of 84.4%. For the same compound, the CI (HCT-116 [6]) was 0.136, the pIC50 (Aurora kinase A) was 7.49 and the CI (HCT-116 [7]) was 0.195. For the same compound, the inhibition [8] was 53.5%, the CI (HCT-116 [9]) was 1 and the CI (HT-29 [10]) was 0.185. For the same compound, the CI (HT-29 [11]) was 0.073, the inhibition [12] was 17.3% and the inhibition [13] was 105%. For the same compound, the CI (HCT-116 [14]) was 0.755, the inhibition [15] was 56.8% and the inhibition [16] was 33.9%. The inhibition [17] was 71.6%, the inhibition [18] was 35.7% and the pIC50 (HCT-116 [19]) was 6.54. It also gave an inhibition [20] of 95.7%, an inhibition [21] of 44.1% and an inhibition [22] of 62.8%. It also gave an inhibition [23] of 12.9%, an inhibition [24] of 16.6% and an inhibition [25] of 28.5%. The CI (HCT-116 [26]) was 0.25, the Activity (HCT-116 [27]) was “Active” and the CI (HT-29 [28]) was 0.102. For the same compound, the inhibition [29] was 16.2%, the inhibition [30] was 88% and the solubility at 24 h [31] was 1.8 µM (≈ 0.815 µg/mL). The pIC50 (Aurora kinase B) was 7.54, the inhibition [32] was 26.7% and the inhibition [33] was 11.8%.
